Test results as given in patent US20190070182A1, “USES OF PYRIMIDO-PYRIDAZINONES TO TREAT CANCER” (Asana Biosciences, LLC, priority 2015, published 2019).

What was measured:
[1] = system: Pfeiffer ("Parental") DLBCL cell line; assay: cell proliferation, Pfeiffer parental; type: cell-based; settings: Homo sapiens
Procedure: (§1) This activity of ASN002 was assessed using a diffuse large B-cell lymphoma (DLBCL) cell line, Pfeiffer (“Parental”); and an ibrutinib-resistant variant of the same cell line (“Ibrutinib-R”), which was developed by growing the cells in the presence of increasing concentrations of ibrutinib. Pools of ibrutinib-resistant cells were tested in this study. The drug idelalisib (which was approved by the FDA in […] for the treatment of B-cell blood cancers) was used for comparison as a reference compound. The data are set forth in Table A (IC50 is the half maximal inhibitory concentration).

[2] = system: ibrutinib-resistant variant of Pfeiffer ("Ibrutinib-R"); assay: cell proliferation, ibrutinib-resistant Pfeiffer; type: cell-based; settings: Homo sapiens, pools of resistant cells
Procedure: as §1

Row | Compound | IC50 [1] [nM] | IC50 [2] [µM]
1 | C=CC(=O)N1CCC[C@@H](n2nc(-c3ccc(Oc4ccccc4)cc3)c3c(N)ncnc32)C1 [Ibrutinib, ibrutinib] | 270 | 4.5
2 | CC[C@H](Nc1ncnc2[nH]cnc12)c1nc2cccc(F)c2c(=O)n1-c1ccccc1 [Idelalisib, idelalisib] | 130 | > 10
